ChEMBL document CHEMBL1201862, “PubChem BioAssay data set” (2004)
Active and inactive are the calls of the source.

Legend:
[1] = target: T1, Nuclear receptor subfamily 0 group B member 1 (Homo sapiens, UniProt P51843); test: Luminescence-based cell-based high throughput dose response assay for inhibitors of the orphan nuclear receptor subfamily 0, group B, member 1 (DAX1; NR0B1). [Related pubchem assays (depositor defined):AID504766, AID504790]; type: functional
T1 sequence (P51843 whole entry): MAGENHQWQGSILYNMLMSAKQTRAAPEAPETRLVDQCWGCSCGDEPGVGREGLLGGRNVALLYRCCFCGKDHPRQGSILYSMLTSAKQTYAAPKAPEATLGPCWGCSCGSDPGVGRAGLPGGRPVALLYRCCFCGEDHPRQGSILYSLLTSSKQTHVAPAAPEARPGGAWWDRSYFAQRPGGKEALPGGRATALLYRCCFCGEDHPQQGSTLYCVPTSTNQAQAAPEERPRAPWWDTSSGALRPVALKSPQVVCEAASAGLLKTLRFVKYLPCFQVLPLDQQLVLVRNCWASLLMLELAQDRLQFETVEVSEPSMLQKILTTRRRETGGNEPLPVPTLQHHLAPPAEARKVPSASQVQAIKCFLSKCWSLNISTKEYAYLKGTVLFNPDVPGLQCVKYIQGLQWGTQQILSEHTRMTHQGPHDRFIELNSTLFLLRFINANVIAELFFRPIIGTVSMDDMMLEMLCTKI

HEK293 = test: cells; type: functional, cell-based; settings: Homo sapiens
[2] = target: T2, Sentrin-specific protease 7 (Homo sapiens, UniProt Q9BQF6); type: functional;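 note: Luminescence-based dose-response confirmation of ultra-high-throughput screening hits, measuring inhibition of SENP7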
T2 sequence (Q9BQF6 whole entry): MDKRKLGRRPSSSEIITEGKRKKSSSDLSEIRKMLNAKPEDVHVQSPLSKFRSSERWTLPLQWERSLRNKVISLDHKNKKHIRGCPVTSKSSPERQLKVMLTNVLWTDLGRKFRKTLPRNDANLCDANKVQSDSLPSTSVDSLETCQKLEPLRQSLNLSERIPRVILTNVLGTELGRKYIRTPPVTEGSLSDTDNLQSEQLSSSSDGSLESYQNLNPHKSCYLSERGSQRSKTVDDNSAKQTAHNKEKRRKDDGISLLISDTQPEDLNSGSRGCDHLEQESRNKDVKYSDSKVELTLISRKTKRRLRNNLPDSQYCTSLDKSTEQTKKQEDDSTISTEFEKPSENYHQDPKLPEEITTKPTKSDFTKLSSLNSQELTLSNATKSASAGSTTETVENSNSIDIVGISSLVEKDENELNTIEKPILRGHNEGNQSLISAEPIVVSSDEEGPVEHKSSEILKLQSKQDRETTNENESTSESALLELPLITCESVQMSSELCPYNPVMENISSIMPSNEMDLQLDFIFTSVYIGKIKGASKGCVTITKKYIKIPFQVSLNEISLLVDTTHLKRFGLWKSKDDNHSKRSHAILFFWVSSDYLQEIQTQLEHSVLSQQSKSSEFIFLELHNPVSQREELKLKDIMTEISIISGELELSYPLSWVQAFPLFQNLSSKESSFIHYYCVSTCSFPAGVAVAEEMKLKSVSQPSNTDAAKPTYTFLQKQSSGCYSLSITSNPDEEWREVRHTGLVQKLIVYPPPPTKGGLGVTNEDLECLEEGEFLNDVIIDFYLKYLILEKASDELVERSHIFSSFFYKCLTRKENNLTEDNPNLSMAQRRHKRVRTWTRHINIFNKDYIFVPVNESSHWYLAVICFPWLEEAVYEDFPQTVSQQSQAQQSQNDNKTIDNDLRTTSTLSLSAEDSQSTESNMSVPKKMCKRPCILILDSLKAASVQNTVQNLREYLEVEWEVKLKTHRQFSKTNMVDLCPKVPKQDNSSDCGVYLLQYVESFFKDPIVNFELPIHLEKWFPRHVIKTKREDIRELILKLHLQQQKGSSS

[3] = target: T3, Sentrin-specific protease 6 (Homo sapiens, UniProt Q9GZR1); type: functional;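 note: Luminescence-based dose-response confirmatory assay of SENP6 inhibition, following up an ultra-high-throughput screen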
T3 sequence (Q9GZR1 whole entry): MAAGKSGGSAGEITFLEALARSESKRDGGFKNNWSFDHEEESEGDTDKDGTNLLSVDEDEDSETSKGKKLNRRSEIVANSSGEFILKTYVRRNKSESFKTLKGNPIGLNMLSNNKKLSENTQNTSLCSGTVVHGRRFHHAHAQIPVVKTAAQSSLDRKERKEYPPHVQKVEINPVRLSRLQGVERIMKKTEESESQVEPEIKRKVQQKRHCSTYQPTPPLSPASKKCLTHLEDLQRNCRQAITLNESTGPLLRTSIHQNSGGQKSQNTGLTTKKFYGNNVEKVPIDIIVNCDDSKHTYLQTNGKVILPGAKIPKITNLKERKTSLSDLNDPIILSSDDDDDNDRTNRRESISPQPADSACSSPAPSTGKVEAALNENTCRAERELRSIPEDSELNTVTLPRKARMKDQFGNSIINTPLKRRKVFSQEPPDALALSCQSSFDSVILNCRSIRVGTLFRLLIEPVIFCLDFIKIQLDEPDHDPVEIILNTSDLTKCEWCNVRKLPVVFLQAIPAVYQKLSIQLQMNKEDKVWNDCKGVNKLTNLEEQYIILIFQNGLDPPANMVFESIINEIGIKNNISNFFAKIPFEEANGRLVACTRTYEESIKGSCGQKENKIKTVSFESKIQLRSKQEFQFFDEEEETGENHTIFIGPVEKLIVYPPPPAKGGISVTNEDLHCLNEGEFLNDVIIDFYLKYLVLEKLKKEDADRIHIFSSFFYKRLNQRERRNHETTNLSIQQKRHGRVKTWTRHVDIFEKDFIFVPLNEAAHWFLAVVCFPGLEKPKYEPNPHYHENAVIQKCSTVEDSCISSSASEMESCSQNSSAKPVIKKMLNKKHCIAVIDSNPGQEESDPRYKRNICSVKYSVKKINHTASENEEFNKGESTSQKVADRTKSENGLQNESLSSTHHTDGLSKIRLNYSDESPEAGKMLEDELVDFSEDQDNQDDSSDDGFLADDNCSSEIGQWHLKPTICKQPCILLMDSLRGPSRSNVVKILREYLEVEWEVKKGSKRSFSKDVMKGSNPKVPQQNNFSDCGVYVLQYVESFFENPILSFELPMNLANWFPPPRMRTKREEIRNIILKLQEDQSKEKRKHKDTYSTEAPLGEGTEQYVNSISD

[4] = target: Voltage-gated inwardly rectifying potassium channel KCNH2 (Homo sapiens, UniProt Q12809); settings: Potency;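 note: confirmatory quantitative high-throughput screen measuring inhibition of hERG channel activity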
Sequence of Voltage-gated inwardly rectifying potassium channel KCNH2 (Q12809 whole entry): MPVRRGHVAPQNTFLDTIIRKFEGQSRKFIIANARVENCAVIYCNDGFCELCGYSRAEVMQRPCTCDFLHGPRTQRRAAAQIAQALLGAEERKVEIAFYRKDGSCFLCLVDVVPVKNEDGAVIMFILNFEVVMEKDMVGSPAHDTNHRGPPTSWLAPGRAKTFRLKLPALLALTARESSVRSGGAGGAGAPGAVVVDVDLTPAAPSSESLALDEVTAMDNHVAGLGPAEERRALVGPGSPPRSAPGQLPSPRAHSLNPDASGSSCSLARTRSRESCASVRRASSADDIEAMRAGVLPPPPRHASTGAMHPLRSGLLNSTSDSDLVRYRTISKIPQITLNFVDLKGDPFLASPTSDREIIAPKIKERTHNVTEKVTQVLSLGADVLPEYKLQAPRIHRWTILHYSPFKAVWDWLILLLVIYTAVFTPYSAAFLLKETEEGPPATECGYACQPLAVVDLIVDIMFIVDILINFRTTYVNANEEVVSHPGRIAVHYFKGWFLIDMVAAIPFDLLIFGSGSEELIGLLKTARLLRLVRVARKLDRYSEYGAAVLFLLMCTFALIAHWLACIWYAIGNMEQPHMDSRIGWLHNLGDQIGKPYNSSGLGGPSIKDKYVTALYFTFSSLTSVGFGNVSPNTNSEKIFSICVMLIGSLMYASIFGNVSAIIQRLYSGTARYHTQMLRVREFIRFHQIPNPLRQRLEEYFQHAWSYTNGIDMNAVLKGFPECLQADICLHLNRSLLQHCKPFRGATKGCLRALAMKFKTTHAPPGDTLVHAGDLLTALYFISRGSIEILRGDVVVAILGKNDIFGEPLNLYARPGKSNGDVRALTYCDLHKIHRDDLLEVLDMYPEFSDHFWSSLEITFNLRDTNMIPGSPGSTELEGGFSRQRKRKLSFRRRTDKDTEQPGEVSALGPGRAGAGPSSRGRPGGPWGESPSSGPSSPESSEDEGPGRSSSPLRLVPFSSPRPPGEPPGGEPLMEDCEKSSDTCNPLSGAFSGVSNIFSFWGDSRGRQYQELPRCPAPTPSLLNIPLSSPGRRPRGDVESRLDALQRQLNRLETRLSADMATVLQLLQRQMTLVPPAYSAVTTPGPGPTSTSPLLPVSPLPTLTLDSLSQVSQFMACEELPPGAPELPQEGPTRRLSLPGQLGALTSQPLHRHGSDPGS

HeLa = test: ATP-based viability loss in HeLa cells – cell-based, CellTiter-Glo luminescence, cherry-pick samples, cytotoxicity control for MITF activator project, dose response (AID 540259); type: functional; settings: Homo sapiens
Caspase-3 = target: T4, Caspase-3 (Homo sapiens, UniProt P42574); type: functional;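 note: Dose-response selectivity test against caspase-3 for candidate inhibitors of sentrin-specific proteases (SENPs)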
T4 sequence (P42574 whole entry): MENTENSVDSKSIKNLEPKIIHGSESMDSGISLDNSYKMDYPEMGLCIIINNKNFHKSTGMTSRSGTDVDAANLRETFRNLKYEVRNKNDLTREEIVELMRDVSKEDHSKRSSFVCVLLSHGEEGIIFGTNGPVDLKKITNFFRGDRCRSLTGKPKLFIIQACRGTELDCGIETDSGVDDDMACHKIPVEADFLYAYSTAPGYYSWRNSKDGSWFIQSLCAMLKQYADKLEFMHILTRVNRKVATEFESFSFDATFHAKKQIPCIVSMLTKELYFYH

[5] = target: T5, Sentrin-specific protease 8 (Homo sapiens, UniProt Q96LD8); type: functional;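 note: luminescence read-out of SENP8 inhibition, dose-response confirmation following an ultra-high-throughput screen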
T5 sequence (Q96LD8 whole entry): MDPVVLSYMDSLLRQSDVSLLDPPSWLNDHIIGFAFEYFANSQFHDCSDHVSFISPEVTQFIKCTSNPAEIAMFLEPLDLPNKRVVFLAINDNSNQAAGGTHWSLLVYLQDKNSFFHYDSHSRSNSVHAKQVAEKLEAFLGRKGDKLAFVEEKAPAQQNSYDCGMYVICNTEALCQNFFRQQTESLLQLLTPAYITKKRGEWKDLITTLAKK

[6] = fluconazole-exposed Candida albicans growth modulators – fluorescence, retest, confirmation (AID 2467); type: functional, cell-based
[7] = target: T6, Serine/threonine-protein phosphatase (Candida dubliniensis (strain CD36 / CBS 7987 / NCPF 3949 / NRRLY-17841) (Yeast), UniProt B9W6M3); test: blockers of CaCl2-induced CDRE-lacZ signaling – S. cerevisiae, luminescence, secondary, dose response (AID 2388); type: functional, cell-based;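 note: yeast reporter cells carrying a calcineurin-responsive lacZ construct stimulated with calcium chloride; luminescent beta-galactosidase reporter signal in whole cells rather than isolated phosphatase activity; potency for inhibition where a drop in reporter signal means calcineurin blockade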
T6 sequence (B9W6M3 whole entry): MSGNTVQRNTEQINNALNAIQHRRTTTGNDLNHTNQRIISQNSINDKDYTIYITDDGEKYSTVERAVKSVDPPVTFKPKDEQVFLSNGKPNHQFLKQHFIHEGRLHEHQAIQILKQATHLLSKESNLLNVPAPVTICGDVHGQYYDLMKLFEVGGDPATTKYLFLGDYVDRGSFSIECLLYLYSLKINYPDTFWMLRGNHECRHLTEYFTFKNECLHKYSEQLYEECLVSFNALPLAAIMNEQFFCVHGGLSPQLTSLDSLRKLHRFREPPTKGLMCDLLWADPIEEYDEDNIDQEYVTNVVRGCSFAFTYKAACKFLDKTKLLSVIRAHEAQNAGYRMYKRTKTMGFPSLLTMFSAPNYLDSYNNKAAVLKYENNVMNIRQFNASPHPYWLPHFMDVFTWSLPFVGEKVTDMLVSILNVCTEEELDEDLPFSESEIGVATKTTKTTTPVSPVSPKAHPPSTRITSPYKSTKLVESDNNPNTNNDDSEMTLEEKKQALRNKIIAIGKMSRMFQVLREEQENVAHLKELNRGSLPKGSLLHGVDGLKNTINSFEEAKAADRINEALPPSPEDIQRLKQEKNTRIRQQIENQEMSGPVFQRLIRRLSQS

[8] = target: ATP-dependent molecular chaperone HSP82 (Candida albicans (strain WO-1) (Yeast), UniProt C4YTQ8); test: steroid-induced GRE reporter decrease in yeast – S. cerevisiae, luminescence, Hsp90 inhibitor project, dose response (AID 2400); type: functional, cell-based;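 note: beta-galactosidase luminescence from glucocorticoid response element reporter as proxy for Hsp90 function; inhibitor potency where signal loss means Hsp90 inhibition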
Sequence of ATP-dependent molecular chaperone HSP82 (C4YTQ8 whole entry): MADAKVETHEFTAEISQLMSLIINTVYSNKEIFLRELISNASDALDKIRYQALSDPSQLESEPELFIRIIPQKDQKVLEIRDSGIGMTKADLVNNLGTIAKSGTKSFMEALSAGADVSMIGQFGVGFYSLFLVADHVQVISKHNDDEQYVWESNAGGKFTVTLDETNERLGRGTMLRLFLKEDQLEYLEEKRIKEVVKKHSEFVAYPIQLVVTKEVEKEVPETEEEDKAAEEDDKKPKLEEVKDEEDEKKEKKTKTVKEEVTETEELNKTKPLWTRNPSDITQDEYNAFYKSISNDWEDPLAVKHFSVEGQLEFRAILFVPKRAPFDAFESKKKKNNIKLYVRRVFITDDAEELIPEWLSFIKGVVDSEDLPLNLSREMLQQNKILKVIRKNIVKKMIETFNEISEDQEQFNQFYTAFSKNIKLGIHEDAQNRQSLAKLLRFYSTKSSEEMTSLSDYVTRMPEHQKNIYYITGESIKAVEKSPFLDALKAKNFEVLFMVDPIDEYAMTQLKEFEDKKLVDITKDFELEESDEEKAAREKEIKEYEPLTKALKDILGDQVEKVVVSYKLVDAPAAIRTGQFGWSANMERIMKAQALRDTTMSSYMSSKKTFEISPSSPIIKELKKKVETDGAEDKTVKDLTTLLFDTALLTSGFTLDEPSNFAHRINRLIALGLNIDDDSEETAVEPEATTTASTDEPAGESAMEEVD

[9] = NIH-3T3 fibroblast cytotoxicity, dose response, cytotoxicity control, cell-based, fluorescence, Alamar Blue, secondary assay (AID 2327); type: functional;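 note: NIH-3T3 mouse fibroblasts cultured with fluconazole at 8 µg/mL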
[10] = target: T7, Type-1 angiotensin II receptor (Homo sapiens, UniProt P30556); test: antagonism of angiotensin II type 1 receptor – cell-based, uHTS hits, selectivity assay for APJ receptor antagonist project, dose response (AID 463214); type: functional;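 note: antagonist potency against angiotensin II stimulated AT1 response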
T7 sequence (P30556 whole entry): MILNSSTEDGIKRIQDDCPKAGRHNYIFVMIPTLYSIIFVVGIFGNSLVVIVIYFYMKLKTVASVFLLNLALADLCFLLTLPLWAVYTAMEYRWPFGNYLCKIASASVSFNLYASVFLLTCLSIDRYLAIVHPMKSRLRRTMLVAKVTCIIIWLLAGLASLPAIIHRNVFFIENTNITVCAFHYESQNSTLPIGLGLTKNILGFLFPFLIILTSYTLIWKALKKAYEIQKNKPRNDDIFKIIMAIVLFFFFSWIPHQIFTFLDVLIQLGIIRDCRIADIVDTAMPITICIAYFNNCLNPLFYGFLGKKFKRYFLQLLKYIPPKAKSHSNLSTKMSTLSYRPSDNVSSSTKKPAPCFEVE

Beta-galactosidase = Beta-galactosidase (Escherichia coli, UniProt Q8VNN2); test: PubChem AID 485352; type: functional
Sequence of Beta-galactosidase (Q8VNN2 whole entry): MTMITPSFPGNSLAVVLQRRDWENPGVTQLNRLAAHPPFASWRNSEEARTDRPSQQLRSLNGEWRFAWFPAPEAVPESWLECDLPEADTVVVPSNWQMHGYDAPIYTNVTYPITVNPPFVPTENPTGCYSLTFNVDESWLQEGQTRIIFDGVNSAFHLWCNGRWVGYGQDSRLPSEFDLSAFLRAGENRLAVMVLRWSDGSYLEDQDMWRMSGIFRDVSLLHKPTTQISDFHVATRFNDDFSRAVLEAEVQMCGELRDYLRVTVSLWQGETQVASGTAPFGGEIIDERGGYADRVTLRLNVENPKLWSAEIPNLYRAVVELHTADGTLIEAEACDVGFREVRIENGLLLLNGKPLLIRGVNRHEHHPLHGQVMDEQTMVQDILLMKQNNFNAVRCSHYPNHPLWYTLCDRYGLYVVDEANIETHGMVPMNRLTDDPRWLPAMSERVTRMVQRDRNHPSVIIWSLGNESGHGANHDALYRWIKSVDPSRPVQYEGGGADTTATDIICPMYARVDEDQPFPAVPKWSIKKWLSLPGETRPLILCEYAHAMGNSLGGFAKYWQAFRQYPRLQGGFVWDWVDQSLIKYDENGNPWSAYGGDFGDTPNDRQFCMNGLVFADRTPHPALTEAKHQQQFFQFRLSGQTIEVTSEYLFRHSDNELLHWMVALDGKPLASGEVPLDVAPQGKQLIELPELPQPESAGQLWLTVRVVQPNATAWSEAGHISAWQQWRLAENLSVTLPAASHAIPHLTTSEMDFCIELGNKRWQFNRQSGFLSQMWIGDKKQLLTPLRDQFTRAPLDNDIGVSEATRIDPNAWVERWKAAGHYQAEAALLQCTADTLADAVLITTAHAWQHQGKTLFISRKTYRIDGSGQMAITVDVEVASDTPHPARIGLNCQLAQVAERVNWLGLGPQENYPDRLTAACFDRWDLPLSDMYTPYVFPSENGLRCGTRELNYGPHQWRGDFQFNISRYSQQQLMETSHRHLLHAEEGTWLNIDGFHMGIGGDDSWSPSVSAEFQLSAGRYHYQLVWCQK

Vero = test: viability of Vero cells under compound – cytotoxicity control for flavivirus capping enzyme inhibitors (AID 588742); type: functional; settings: Chlorocebus sabaeus
[11] = viability of uninfected HEp-2 cells – cell-based, HTS, cytotoxicity control for RSV inhibitor project, dose response (AID 2410); type: functional; settings: human respiratory syncytial virus

With `CCOC(=O)c1nn(-c2ccc(Cl)cc2)cc1O` as the compound, how does the IC50 [1] read?
Its IC50 is > 67.5 µM (inactive).

What about the IC50 (HEK293) of the same compound?
Its IC50 is > 67.5 µM (inactive).

For `Cc1ccc2c(c1N)C(=O)c1ccccc1C2=O`, which IC50 [2] is on record?
Its IC50 is 4.33 µM (active).

What about the IC50 [3] of the same compound?
Its IC50 is 42.3 µM (active).

And the AC50 [4]?
The AC50 was 35.5 µM (inconclusive).

What about the AC50 (HeLa) of the same compound?
Its AC50 is 36 µM (active).

What about the IC50 (Caspase-3) of the same compound?
Its IC50 is 11.8 µM (active).

And the IC50 [5]?
Its IC50 is > 100 µM (inactive).

With `CCOc1ccc(-n2c(=O)[nH]c3sc4c(c3c2=O)CCCC4)cc1` as the compound, how does the IC50 [1] read?
Its IC50 is > 67.6 µM (inactive).

What about the IC50 (HEK293) of the same compound?
Its IC50 is > 67.6 µM (inactive).

Which EC50 [6] does the source give for `COc1ccc(-n2nc(C(=O)NCC(=O)NCCC3=CCCCC3)c3ccccc3c2=O)c(OC)c1` here?
The EC50 was 0.469 µM (active).

What about the EC50 [7] of the same compound?
Its EC50 is > 180 µM (inactive).

And the EC50 [8]?
Its EC50 is > 150 µM (inactive).

What about the EC50 [9] of the same compound?
Its EC50 is > 150 µM (inactive).

What does the source list for `O=C(CN1C(=O)C2C3C=CC(C3)C2C1=O)OCC(=O)c1ccc(Cl)c([N+](=O)[O-])c1` (stereo unspecified)?
IC50 [10]: 14.3 µM (active); EC50 (Beta-galactosidase): > 40 µM (inactive)

Which IC50 [10] does the source give for `O=C(CNc1ccccc1C(=O)O)c1ccccc1` here?
Its IC50 is 7.51 µM (active).

What about the EC50 (Beta-galactosidase) of the same compound?
Its EC50 is > 40 µM (inactive).

Which CC50 (Vero) does the source give for `COc1ccccc1N1CCN(C(S)=Nc2ccc3nc(N4CCOCC4)cc(C)c3c2)CC1` here?
The CC50 was > 40 µM (active).

What about the CC50 [11] of the same compound?
Its CC50 is 39.1 µM (active).

Which results are given for `C/C(=N\NC(=O)c1nn(C)cc1Br)c1ccncc1`?
IC50 [1]: > 67.6 µM (inactive); IC50 (HEK293): > 67.6 µM (inactive)

For `Cc1nn(-c2ccccc2)c(C)c1C(=O)OC/C(O)=C(\C#N)c1nc2ccccc2[nH]1`, which EC50 [6] is on record?
Its EC50 is 0.764 µM (active).

And the EC50 [7]?
The EC50 was > 180 µM (inactive).

What about the EC50 [8] of the same compound?
The EC50 was > 150 µM (inactive).

And the EC50 [9]?
Its EC50 is > 150 µM (inconclusive).
